Measured values: patent US7368578B2, “Five-membered heterocyclic compounds” (Takeda Pharmaceutical Company Limited, priority 2002, dated 2008)
Structures can show the parent of a compound that is named as a salt.

Row | SMILES | melting point
1 | CCOP(=O)(/C=C/c1nc(-c2ccccc2)oc1COc1ccc(OCc2nc(-c3ccccc3)oc2C)cc1)OCC | 124 to 125 °C
2 | CCOP(=O)(CCc1cc(OCc2ccc(OCc3nc(-c4ccco4)oc3C)c(OC)c2)nn1-c1ccccc1)OCC | 76 to 77 °C
3 | COc1cc(COc2nn(-c3ccccc3)cc2/C=C/P(=O)(OC)OC)ccc1OCc1nc(-c2ccco2)oc1C | 107 to 108 °C
4 | CCOP(=O)(/C=C/c1cn(-c2ccccc2)nc1OCc1ccc(OCc2nc(-c3ccccc3)oc2C)cc1)OCC | 109 to 110 °C
5 | CCOP(=O)(/C=C/c1cn(-c2ccccc2)nc1OCc1ccc(OCc2nc(-c3ccco3)oc2C)cc1)OCC | 131 to 132 °C
6 | CCOc1cc(COc2nn(-c3ccccc3)cc2/C=C/P(=O)(OCC)OCC)ccc1OCc1nc(-c2ccco2)oc1C | 117 to 118 °C
7 | CCOP(=O)(/C=C/c1cn(-c2ccccc2)nc1OCc1ccc(OCc2nc(-c3ccco3)oc2C)c(C(=O)OC)c1)OCC | 92 to 93 °C
8 | CCOP(=O)(/C=C/c1cn(-c2ccccc2)nc1OCc1ccc(OCc2nc(-c3ccco3)oc2C)c(C(=O)O)c1)OCC | 169 to 170 °C
9 | CCOP(=O)(/C=C/c1cn(-c2ccccc2)nc1OCc1ccc(OCc2nc(-c3ccco3)oc2C)nc1)OCC | 134 to 135 °C
10 | CCOP(=O)(/C=C/c1cn(C)nc1OCc1ccc(OCc2nc(-c3ccco3)oc2C)c(OC)c1)OCC | 72 to 73 °C
11 | CCOP(=O)(/C=C/c1cn(CC)nc1OCc1ccc(OCc2nc(-c3ccco3)oc2C)c(OC)c1)OCC | 82 to 84 °C
12 | CCOP(=O)(/C=C/c1cn(CCO)nc1OCc1ccc(OCc2nc(-c3ccco3)oc2C)c(OC)c1)OCC | 95 to 96 °C
13 | CCOP(=O)(OCC)/C(O)=C/c1cn(-c2ccccc2)nc1OCc1ccc(OCc2nc(-c3ccco3)oc2C)c(OC)c1 | 147 to 149 °C
14 | CCOP(=O)(/C=C/C=C/c1cn(-c2ccccc2)nc1OCc1ccc(OCc2nc(-c3ccco3)oc2C)c(OC)c1)OCC | 143 to 144 °C
15 | CCOP(=O)(/C=C/c1cn(-c2ccccc2)nc1OCc1ccc(OCc2nc(N3CCCCC3)sc2C)c(OC)c1)OCC | 95 to 96 °C
16 | CCOP(=O)(/C=C/c1cn(-c2ccccc2)nc1OCc1ccc(OCc2nc(-c3ccc(C(=O)O)cc3)oc2C)c(OC)c1)OCC | 194 to 195 °C
17 | CCOP(=O)(/C=C/c1cn(-c2ccccc2)nc1OCc1ccc(OCc2nc(-c3ccc(C(N)=O)cc3)oc2C)c(OC)c1)OCC | 146 to 148 °C
18 | CCOP(=O)(/C=C/c1cn(-c2ccccc2)nc1OCc1ccc(OCc2nc(-c3ccccc3)sc2C)c(OC)c1)OCC | 110 to 111 °C
19 | CCOP(=O)(/C=C/c1cn(-c2ccccc2)nc1OCc1ccc(OCc2nc(-c3ccc(C(=O)OC)cc3)oc2C)c(OC)c1)OCC | 129 to 130 °C
20 | CCOP(=O)(/C=C/c1cn(-c2ccccc2)nc1OCc1ccc(OCc2coc(-c3ccco3)n2)c(OC)c1)OCC | 96 to 97 °C
21 | CCOP(=O)(/C=C/c1cn(-c2ccccc2)nc1OCc1ccc(OCc2sc(-c3ccccc3)nc2C)c(OC)c1)OCC | 113 to 114 °C
22 | CCOP(=O)(/C=C/c1cn(-c2ccccc2)nc1OCc1ccc(OCc2cn(-c3ccccn3)nc2C)c(OC)c1)OCC | 103 to 104 °C
23 | CCOP(=O)(/C=C/c1cn(-c2ccccc2)nc1OCc1ccc(OCc2nc(-c3ccccc3)cn2C)c(OC)c1)OCC | 144 to 145 °C
24 | CCOP(=O)(/C=C/c1cn(-c2ccccc2)nc1OCc1ccc(OCc2nc(-c3cccnc3)oc2C)c(OC)c1)OCC | 128 to 129 °C
25 | CCOP(=O)(/C=C/c1cn(-c2ccccc2)nc1OCc1ccc(OCc2nc(-c3cccc(O)c3)oc2C)c(OC)c1)OCC | 127 to 128 °C
26 | CCOP(=O)(/C=C/c1cn(-c2ccccc2)nc1OCc1ccc(OCc2nc(-c3cccc(C(=O)O)c3)oc2C)cc1)OCC | 153 to 155 °C
27 | CCOP(=O)(/C=C/c1cn(-c2ccccc2)nc1OCc1ccc(OCc2nc(N3CCOCC3)sc2C)c(OC)c1)OCC | 88 to 90 °C

Row | SMILES | melting point
28 | CCOC(=O)c1ccc(-c2nc(COc3ccc(COc4nn(-c5ccccc5)cc4/C=C/P(=O)(OCC)OCC)cc3OC)c(C)o2)o1 | 129 to 130 °C
29 | CCOP(=O)(/C=C/c1cn(-c2ccccc2)nc1OCc1ccc(OCc2nc(-c3ccc(OC)c(C(=O)OC)c3)oc2C)c(OC)c1)OCC | 144 to 145 °C
30 | CCOP(=O)(/C=C/c1cnc(-c2ccccc2)nc1OCc1ccc(OCc2nc(-c3ccco3)oc2C)c(OC)c1)OCC | 103 to 104 °C
31 | CCOP(=O)(/C=C\c1cnc(-c2ccccc2)nc1OCc1ccc(OCc2nc(-c3ccco3)oc2C)c(OC)c1)OCC | 154 to 155 °C
32 | CCOC(=O)/C=C/c1nc(COc2ccc(COc3nn(-c4ccccc4)cc3/C=C/P(=O)(OCC)OCC)cc2OC)c(C)o1 | 130 to 131 °C
33 | CCOP(=O)(/C=C/c1cn(-c2ccccc2)nc1OCc1ccc(OCc2nc(-c3ccc(C)c(C(=O)OC)c3)oc2C)c(OC)c1)OCC | 121 to 122 °C
34 | CCOP(=O)(/C=C/c1cn(-c2ccccc2)nc1OCc1ccc(OCc2nc(-c3ccc(C)c(C(=O)O)c3)oc2CC)c(OC)c1)OCC | 165 to 166 °C
35 | CCOP(=O)(/C=C/c1cn(-c2ccccc2)nc1OCc1ccc(OCc2nc(N3CCC(C(=O)O)CC3)sc2C)c(OC)c1)OCC | 159 to 160 °C
36 | CCOC(=O)c1ccc(-c2nc(COc3ccc(COc4nn(-c5ccccc5)cc4/C=C/P(=O)(OCC)OCC)cc3OC)c(C)o2)s1 | 114 to 115 °C
37 | CCOP(=O)(/C=C/c1cn(-c2ccccc2)nc1OCc1ccc(OCc2nc(-c3ccc(C(=O)O)s3)oc2C)c(OC)c1)OCC | 165 to 166 °C
38 | CCOP(=O)(/C=C/c1cn(-c2ccccc2)nc1OCc1ccc(OCc2nc(-c3cccc(C#N)c3)oc2C)c(OC)c1)OCC | 147 to 148 °C
39 | CCOP(=O)(/C=C\c1cn(-c2ccccc2)nc1OCc1ccc(OCc2nc(-c3cccc(C(=O)OC)c3)oc2C)c(OC)c1)OCC | 112 to 113 °C
40 | CCOP(=O)(/C=C\c1cn(-c2ccccc2)nc1OCc1ccc(OCc2nc(-c3cccc(C(=O)O)c3)oc2C)c(OC)c1)OCC | 158 to 159 °C
41 | CCOP(=O)(/C=C/c1cn(-c2ccccc2)nc1OCc1ccc(OCc2nc(-c3ccc(CC(=O)[O-])cc3)oc2C)c(OC)c1)OCC.[Na+] | 109 to 110 °C
42 | COc1cc(COc2nn(-c3ccccc3)cc2C(C[N+](=O)[O-])C[N+](=O)[O-])ccc1OCc1nc(-c2ccco2)oc1C | 126 to 127 °C
43 | COc1cc(COc2nn(-c3ccccc3)cc2C=O)ccc1OCc1nc(-c2cccc(OS(C)(=O)=O)c2)oc1C (as salt: methanesulfonate) [Example 228, 3-{4-[(4-{[(4-formyl-1-phenyl-1H-pyrazol-3-yl)oxy]methyl}-2-methoxyphenoxy)methyl]-5-methyl-1,3-oxazol-2-yl}phenyl methanesulfonate] | 146 to 148 °C
44 | CCOC(=O)c1cn(Cc2ccccc2)nc1OCc1ccc(OCc2nc(-c3ccccc3)oc2C)c(OC)c1 [Example 1, ethyl 1-benzyl-3-({3-methoxy-4-[(5-methyl-2-phenyl-1,3-oxazol-4-yl)methoxy]benzyl}oxy)-1H-pyrazole-4-carboxylate] | 154 to 155 °C
45 | COc1cc(COc2nn(Cc3ccccc3)cc2C(=O)O)ccc1OCc1nc(-c2ccccc2)oc1C [Example 2, 1-benzyl-3-({3-methoxy-4-[(5-methyl-2-phenyl-1,3-oxazol-4-yl)methoxy]benzyl}oxy)-1H-pyrazole-4-carboxylic acid] | 162 to 163 °C
46 | COc1cc(COc2nn(Cc3ccccc3)cc2C(N)=O)ccc1OCc1nc(-c2ccccc2)oc1C [Example 3, 1-benzyl-3-({3-methoxy-4-[(5-methyl-2-phenyl-1,3-oxazol-4-yl)methoxy]benzyl}oxy)-1H-pyrazole-4-carboxamide] | 164 to 165 °C
47 | COc1cc(COc2nn(Cc3ccccc3)cc2CO)ccc1OCc1nc(-c2ccccc2)oc1C [Example 4, [1-benzyl-3-({3-methoxy-4-[(5-methyl-2-phenyl-1,3-oxazol-4-yl)methoxy]benzyl}oxy)-1H-pyrazol-4-yl]methanol] | 90 to 91 °C
48 | COc1cc(COc2nn(Cc3ccccc3)cc2C=O)ccc1OCc1nc(-c2ccccc2)oc1C [Example 5, 1-benzyl-3-({3-methoxy-4-[(5-methyl-2-phenyl-1,3-oxazol-4-yl)methoxy]benzyl}oxy)-1H-pyrazole-4-carbaldehyde] | 151 to 152 °C
49 | CCOC(=O)c1cn(Cc2ccccc2)nc1OCc1ccc(OCc2nc(-c3ccco3)oc2C)cc1 [Example 6, ethyl 1-benzyl-3-[(4-{[2-(2-furyl)-5-methyl-1,3-oxazol-4-yl]methoxy}benzyl)oxy]-1H-pyrazole-4-carboxylate] | 101 to 102 °C
50 | Cc1oc(-c2ccco2)nc1COc1ccc(COc2nn(Cc3ccccc3)cc2C(=O)O)cc1 [Example 7, 1-benzyl-3-[(4{[2-(2-furyl)-5-methyl-1,3-oxazol-4-yl]methoxy}benzyl)oxy]-1H-pyrazole-4-carboxylic acid] | 170 to 171 °C
51 | Cc1oc(-c2ccco2)nc1COc1ccc(COc2nn(Cc3ccccc3)cc2C(N)=O)cc1 [Example 8, 1-benzyl-3-[(4{[2-(2-furyl)-5-methyl-1,3-oxazol-4-yl]methoxy}benzyl)oxy]-1H-pyrazole-4-carboxamide] | 139 to 140 °C
52 | CC(=O)NC(=O)c1cn(Cc2ccccc2)nc1OCc1ccc(OCc2nc(-c3ccco3)oc2C)cc1 [Example 9, N-acetyl-1-benzyl-3-[(4{[2-(2-furyl)-5-methyl-1,3-oxazol-4-yl]methoxy}benzyl)oxy]-1H-pyrazole-4-carboxamide] | 193 to 194 °C
53 | Cc1oc(-c2ccco2)nc1COc1ccc(COc2nn(Cc3ccccc3)cc2C=O)cc1 [Example 11, 1-benzyl-3-[(4{[2-(2-furyl)-5-methyl-1,3-oxazol-4-yl]methoxy}benzyl)oxy]-1H-pyrazole-4-carbaldehyde] | 118 to 119 °C
54 | CCOC(=O)c1cn(Cc2ccccc2)nc1OCc1ccc(OCc2nc(-c3ccco3)oc2C)c(OC)c1 [Example 12, ethyl 1-benzyl-3-[(4-{[2-(2-furyl)-5-methyl-1,3-oxazol-4-yl]methoxy}-3-methoxybenzyl)oxy]-1H-pyrazole-4-carboxylate] | 117 to 118 °C
